Test: recombinant UMI read abundance after kanamycin selection (control-corrected) (log10(CPM+1)); higher = more efficient recombination; extreme values may be limits of the assay; sequences stand for … in AGTGCAGAGAAAATCGGCCAGTTTTCTCTGCCTGCAGTCCGCATGCCGTGGGACCCCTTGGGTTCTAACCTGTTGCCTAGATTTATGCAGCGGACTGCCTTTCTCCCAAAGTGATAAACCGG…AGGTTGGTTTCACT; site = the 11-nt donor
Protocol: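 Pooled E. coli donor-specificity screen for the IS621 bridge recombinase. Each library member carries a reprogrammed 11-nt donor and a full-length LE bridge RNA expressed in cis from the natural promoter, with a paired donor-binding loop (8-nt LDG + 4-nt RDG) and a target-binding loop fixed to T5. It is co-electroporated with a T5 target plasmid; recombinase is induced with 0.07 mM IPTG and recombinants are selected on kanamycin. UMIs are counted as CPM, averaged over two biological replicates and corrected by the unselected control. Molecule = full bridge RNA written as DNA, built from the T5 scaffold: LDG = donor specificity nt 1-8, RDG = reverse complement of nt 8-11.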
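Also: IS621 bridge recombinase in Escherichia coli cells against a fixed T5 target plasmid.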

| Sequence | recombinant UMI read abundance (log10) |
| --- | --- |
| ACGGTATCATGGACCGGTTTTCCCGGTAATCCGTATTTGCA (site ACGGTATCTTG) | 3.16 |
| ACGGTATCATGGACCGGTTTTCCCGGTAATCCGTATTTGCA (site ACTGTATCTTG) | 2.32 |
| ACGGTTTCATGGACCGGTTTTCCCGGTAATCCGTATTTGCA (site ACAGTATCTTG) | 2.71 |
| ACGGTTTCATGGACCGGTTTTCCCGGTAATCCGTATTTGCA (site ACGGTTTCTTG) | 2.34 |
| ACGTCCTCATGGACCGGTTTTCCCGGTAATCCGTATTTGGT (site ACGTCCTCTAC) | 1.51 |
| ACGTGTGCATGGACCGGTTTTCCCGGTAATCCGTATTTGGT (site ACGTGTGCTAC) | 1.99 |
| ACTAGAACATGGACCGGTTTTCCCGGTAATCCGTATTTGAG (site AATAGAACTCT) | 0.839 |
| ACTAGAACATGGACCGGTTTTCCCGGTAATCCGTATTTGAG (site ACAAGAACTCT) | 1.26 |
| ACTAGAACATGGACCGGTTTTCCCGGTAATCCGTATTTGAG (site ACCAGAACTCT) | 1.23 |
| ACTAGAACATGGACCGGTTTTCCCGGTAATCCGTATTTGAG (site ACGAGAACTCT) | 0.424 |
| ACTAGAACATGGACCGGTTTTCCCGGTAATCCGTATTTGAG (site ACTAAAACTCT) | 0.908 |
| ACTAGAACATGGACCGGTTTTCCCGGTAATCCGTATTTGAG (site ACTACAACTCT) | 0.383 |
| ACTAGAACATGGACCGGTTTTCCCGGTAATCCGTATTTGAG (site ACTAGAACTAT) | 0 |
| ACTAGAACATGGACCGGTTTTCCCGGTAATCCGTATTTGAG (site ACTAGAACTCA) | 0.00396 |
| ACTAGAACATGGACCGGTTTTCCCGGTAATCCGTATTTGAG (site ACTAGAACTCC) | 0.0223 |
| ACTAGAACATGGACCGGTTTTCCCGGTAATCCGTATTTGAG (site ACTAGAACTCG) | 0 |
| ACTAGAACATGGACCGGTTTTCCCGGTAATCCGTATTTGAG (site ACTAGAACTCT) | 1.72 |
| ACTAGAACATGGACCGGTTTTCCCGGTAATCCGTATTTGAG (site ACTAGAACTGT) | 0 |
| ACTAGAACATGGACCGGTTTTCCCGGTAATCCGTATTTGAG (site ACTAGAACTTT) | 0.286 |
| ACTAGAACATGGACCGGTTTTCCCGGTAATCCGTATTTGAG (site ACTAGACCTCT) | 0.00567 |
| ACTAGAACATGGACCGGTTTTCCCGGTAATCCGTATTTGAG (site ACTAGAGCTCT) | 0.324 |
| ACTAGAACATGGACCGGTTTTCCCGGTAATCCGTATTTGAG (site ACTAGATCTCT) | 1.72 |
| ACTAGAACATGGACCGGTTTTCCCGGTAATCCGTATTTGAG (site ACTAGCACTCT) | 0.0125 |
| ACTAGAACATGGACCGGTTTTCCCGGTAATCCGTATTTGAG (site ACTAGGACTCT) | 0.407 |
| ACTAGAACATGGACCGGTTTTCCCGGTAATCCGTATTTGAG (site ACTAGTACTCT) | 0.0383 |
| ACTAGAACATGGACCGGTTTTCCCGGTAATCCGTATTTGAG (site ACTATAACTCT) | 1.22 |

| Sequence | recombinant UMI read abundance (log10) |
| --- | --- |
| ACTAGAACATGGACCGGTTTTCCCGGTAATCCGTATTTGAG (site ACTCGAACTCT) | 0.115 |
| ACTAGAACATGGACCGGTTTTCCCGGTAATCCGTATTTGAG (site ACTGGAACTCT) | 0.3 |
| ACTAGAACATGGACCGGTTTTCCCGGTAATCCGTATTTGAG (site ACTTGAACTCT) | 0.118 |
| ACTAGAACATGGACCGGTTTTCCCGGTAATCCGTATTTGAG (site AGTAGAACTCT) | 0.227 |
| ACTAGAACATGGACCGGTTTTCCCGGTAATCCGTATTTGAG (site ATTAGAACTCT) | 1.34 |
| ACTAGAACATGGACCGGTTTTCCCGGTAATCCGTATTTGAG (site CCTAGAACTCT) | 1.33 |
| ACTAGAACATGGACCGGTTTTCCCGGTAATCCGTATTTGAG (site GCTAGAACTCT) | 0.34 |
| ACTAGAACATGGACCGGTTTTCCCGGTAATCCGTATTTGAG (site TCTAGAACTCT) | 0.854 |
| ACTAGAACATGGACCGGTTTTCCCGGTAATCCGTATTTGCG (site ACTAGAACTCA) | 0.0146 |
| ACTAGAACATGGACCGGTTTTCCCGGTAATCCGTATTTGCG (site ACTAGAACTCC) | 0.0147 |
| ACTAGAACATGGACCGGTTTTCCCGGTAATCCGTATTTGCG (site ACTAGAACTCG) | 2.19 |
| ACTAGAACATGGACCGGTTTTCCCGGTAATCCGTATTTGCG (site ACTAGAACTCT) | 0.412 |
| ACTAGACCATGGACCGGTTTTCCCGGTAATCCGTATTTGGA (site ACTAGACCTTC) | 0.014 |
| ACTAGAGCATGGACCGGTTTTCCCGGTAATCCGTATTTGAG (site ACTAGAACTCT) | 1.52 |
| ACTAGAGCATGGACCGGTTTTCCCGGTAATCCGTATTTGAG (site ACTAGACCTCT) | 0 |
| ACTAGAGCATGGACCGGTTTTCCCGGTAATCCGTATTTGAG (site ACTAGAGCTCT) | 2.15 |
| ACTAGAGCATGGACCGGTTTTCCCGGTAATCCGTATTTGAG (site ACTAGATCTCT) | 1.65 |
| ACTAGAGCATGGACCGGTTTTCCCGGTAATCCGTATTTGCA (site ACTAGAGCTTG) | 2.15 |
| ACTAGCGCATGGACCGGTTTTCCCGGTAATCCGTATTTGGT (site ACTAGAGCTAC) | 0.428 |
| ACTAGCGCATGGACCGGTTTTCCCGGTAATCCGTATTTGGT (site ACTAGCGCTAC) | 1.86 |
| ACTAGCGCATGGACCGGTTTTCCCGGTAATCCGTATTTGGT (site ACTAGGGCTAC) | 0.00433 |
| ACTAGCGCATGGACCGGTTTTCCCGGTAATCCGTATTTGGT (site ACTAGTGCTAC) | 0.00815 |
| ACTAGGACATGGACCGGTTTTCCCGGTAATCCGTATTTGAG (site ACTAGAACTCT) | 2.04 |
| ACTAGGACATGGACCGGTTTTCCCGGTAATCCGTATTTGAG (site ACTAGCACTCT) | 0.00393 |
| ACTAGGACATGGACCGGTTTTCCCGGTAATCCGTATTTGAG (site ACTAGGACTCT) | 2.15 |
| ACTAGGACATGGACCGGTTTTCCCGGTAATCCGTATTTGAG (site ACTAGTACTCT) | 0.226 |

From the supplement of paper PMC11208160
